Results reported in patent US12319655B2, “RAF kinase inhibitors and methods of use thereof” (Deciphera Pharmaceuticals, LLC, priority 2021, dated 2025).
Read-outs that look alike come from different tables or passages of the source.

Legend:
[1] = test system: Miapaca-2 cells; experiment: MiaPaca-2 Cell Proliferation Assay (1); type: cell-based; conditions: Homo sapiens, MIA PaCa-2, single agent, read-out: MiaPaca2 (1) IC50
Outline: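 Resazurin was added after compound exposure and incubated 5-6 h, then fluorescence read at 540 nm excitation and 600 nm emission to give IC50.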

[2] = target: A-Raf kinase (SEQ. ID No: 1) (Homo sapiens (Human), UniProt P10398, Y301D/Y302D); experiment: Biochemical Assay for A-Raf (1); conditions: Table J
A-Raf kinase (SEQ. ID No: 1), sequence (P10398 other isoform, or with tags, fused parts or gaps Y301D (already in the parent)/Y302D (already in the parent)): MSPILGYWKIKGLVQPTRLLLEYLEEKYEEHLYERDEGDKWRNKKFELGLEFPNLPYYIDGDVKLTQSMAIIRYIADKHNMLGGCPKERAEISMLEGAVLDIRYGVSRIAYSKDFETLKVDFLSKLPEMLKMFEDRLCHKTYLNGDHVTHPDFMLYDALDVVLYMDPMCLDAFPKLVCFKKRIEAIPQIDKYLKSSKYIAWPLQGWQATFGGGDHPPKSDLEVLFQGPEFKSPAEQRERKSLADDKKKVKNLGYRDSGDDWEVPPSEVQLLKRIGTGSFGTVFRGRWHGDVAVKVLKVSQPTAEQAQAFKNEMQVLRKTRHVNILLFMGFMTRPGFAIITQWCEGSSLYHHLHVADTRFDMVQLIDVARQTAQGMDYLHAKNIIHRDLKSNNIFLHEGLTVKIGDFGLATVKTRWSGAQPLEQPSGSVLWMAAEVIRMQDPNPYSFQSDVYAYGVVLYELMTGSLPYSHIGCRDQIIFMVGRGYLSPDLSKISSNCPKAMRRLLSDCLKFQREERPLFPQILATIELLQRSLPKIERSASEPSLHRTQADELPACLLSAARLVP
Outline: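 A-Raf Y301D/Y302D at 5.55 nM phosphorylates 30.1 nM MEK with 1 mM ATP in pH 7.5 Tris buffer, 1% DMSO. Activity was read continuously as NADH oxidation at 340 nm in a pyruvate kinase/lactate dehydrogenase coupled system for 6 h at 30 °C. Rates from 4–5 h were converted to percent inhibition, and IC50 came from a four-parameter fit.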

[3] = target: C-Raf kinase (SEQ. ID NO: 3) (Homo sapiens (Human), UniProt P04049, Y340D/Y341D); experiment: Biochemical Assay for C-Raf (1); conditions: Table J
C-Raf kinase (SEQ. ID NO: 3), sequence (P04049 307-648 Y340D/Y341D): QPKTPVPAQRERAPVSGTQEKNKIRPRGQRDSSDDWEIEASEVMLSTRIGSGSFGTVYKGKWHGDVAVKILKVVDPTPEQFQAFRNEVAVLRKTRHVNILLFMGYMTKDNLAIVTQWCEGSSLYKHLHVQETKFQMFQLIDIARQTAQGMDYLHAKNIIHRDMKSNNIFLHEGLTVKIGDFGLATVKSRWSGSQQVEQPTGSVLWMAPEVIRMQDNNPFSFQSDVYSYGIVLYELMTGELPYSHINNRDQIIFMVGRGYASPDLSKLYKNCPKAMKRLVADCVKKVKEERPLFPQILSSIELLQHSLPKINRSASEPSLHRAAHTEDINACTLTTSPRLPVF
Outline: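 Coupled pyruvate kinase/LDH assay tracking NADH oxidation at 340 nm, with 0.43 nM C-Raf, 30.1 nM MEK and 1 mM ATP in pH 7.5 Tris buffer (15 mM MgCl2, 1% DMSO final). Read continuously for 6 h at 30 °C, rate taken from the 4–5 h window. IC50 from four-parameter fit of percent inhibition.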

[4] = target: B-Raf (V600E) (SEQ. ID NO: 4) kinase (Homo sapiens (Human), UniProt P15056, V600E); experiment: Biochemical Assay for B-Raf (V600E) (1); conditions: Table J, BRAF V600E
B-Raf (V600E) (SEQ. ID NO: 4) kinase, sequence (P15056 416-766 V600E): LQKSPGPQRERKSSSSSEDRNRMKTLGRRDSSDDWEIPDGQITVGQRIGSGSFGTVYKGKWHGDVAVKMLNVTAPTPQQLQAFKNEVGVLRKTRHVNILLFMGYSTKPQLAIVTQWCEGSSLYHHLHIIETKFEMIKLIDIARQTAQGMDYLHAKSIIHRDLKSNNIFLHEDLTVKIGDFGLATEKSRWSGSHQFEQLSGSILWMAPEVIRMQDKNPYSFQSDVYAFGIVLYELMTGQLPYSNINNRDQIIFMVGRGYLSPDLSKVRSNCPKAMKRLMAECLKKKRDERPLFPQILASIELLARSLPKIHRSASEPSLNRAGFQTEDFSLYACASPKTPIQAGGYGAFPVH
Outline: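 Coupled pyruvate kinase/lactate dehydrogenase assay: 0.03 nM B-Raf V600E, 30.1 nM MEK, 1 mM ATP, pH 7.5 Tris/MgCl2 buffer, 1% DMSO. NADH oxidation followed at 340 nm for 6 h at 30 °C; rate from 3–4 h converted to percent inhibition, IC50 by four-parameter fit.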

[5] = assay version (1), read-out: ARAF (1) IC50
[6] = assay version (1), read-out: CRAF (1) IC50
[7] = assay version (1), read-out: BRAF VE (1) IC50
[8] = biochemical assay (1), read-out: ARAF (1)
[9] = biochemical assay (1), read-out: CRAF (1)
[10] = biochemical assay (1), read-out: BRAF VE (1)

IC50 [1] [nM] | IC50 [2, 5] [nM] | IC50 [3, 6] [nM] | IC50 [4, 7] [nM] | IC50 [2, 8] [nM] | IC50 [3, 9] [nM] | IC50 [4, 10] [nM] | SMILES
100 to 500 | 1000 to 10000 | ≤ 100 | ≤ 100 | – | – | – | CC(=O)Nc1cc(-c2cc(-c3cc(NC(=O)c4ccnc(C(F)(F)F)c4)ccc3C)cc(OCCO)n2)ccn1 [Example 1, N-(3-(2′-acetamido-6-(2-hydroxyethoxy)-[2,4′-bipyridin]-4-yl)-4-methylphenyl)-2-(trifluoromethyl)isonicotinamide]
1000 to 10000 | 500 to 1000 | ≤ 100 | ≤ 100 | – | – | – | CC(=O)Nc1cc(-c2cc(-c3cc(NC(=O)c4ccnc(C(F)(F)F)c4)c(F)cc3C)ccn2)ccn1 [Example 2]
1000 to 10000 | 500 to 1000 | ≤ 100 | ≤ 100 | – | – | – | CC(=O)Nc1cc(-c2cc(-c3cc(NC(=O)c4cccc(C)c4)ccc3C)ccn2)ccn1 [Example 32]
1000 to 10000 | 1000 to 10000 | ≤ 100 | ≤ 100 | – | – | – | Cc1cc(F)c(NC(=O)c2ccnc(C(F)(F)F)c2)cc1-c1ccnc(-c2ccnc(NC=O)c2)c1 [Example 35]
1000 to 10000 | 1000 to 10000 | ≤ 100 | ≤ 100 | – | – | – | CC(=O)Nc1cc(-c2cc(-c3cc(NC(=O)c4ccnc(C(F)(F)F)c4)cnc3C)ccn2)ccn1 [Example 36]
1000 to 10000 | 1000 to 10000 | ≤ 100 | ≤ 100 | – | – | – | CC(=O)Nc1cc(-c2cc(-c3cc(NC(=O)c4cccc(C(F)(F)F)c4)cnc3C)ccn2)ccn1 [Example 37]
1000 to 10000 | 1000 to 10000 | ≤ 100 | ≤ 100 | – | – | – | Cc1ccc(NC(=O)c2ccnc(C(F)(F)F)c2)cc1-c1ccnc(-c2ccnc(NC(=O)CC#N)c2)c1 [Example 39, N-(3-(2′-(2-cyanoacetamido)-[2,4′-bipyridin]-4-yl)-4-methylphenyl)-2-(trifluoromethyl)isonicotinamide]
1000 to 10000 | 1000 to 10000 | ≤ 100 | ≤ 100 | – | – | – | CNC(=O)c1cc(-c2cc(-c3cc(NC(=O)c4ccnc(C)c4)ccc3C)ccn2)ccn1 [Example 40]
1000 to 10000 | 1000 to 10000 | ≤ 100 | ≤ 100 | – | – | – | CC(=O)Nc1cc(-c2cc(-c3cc(NC(=O)c4ccnc(C(F)(F)F)c4)ccc3C)nc(N(C)C)n2)ccn1 [Example 41, N-(3-(6-(2-acetamidopyridin-4-yl)-2-(dimethylamino)pyrimidin-4-yl)-4-methylphenyl)-2-(trifluoromethyl)isonicotinamide]
1000 to 10000 | 1000 to 10000 | ≤ 100 | ≤ 100 | – | – | – | CNC(=O)c1cc(-c2cc(-c3cc(NC(=O)c4ccnc(C(F)(F)F)c4)cnc3C)ccn2)ccn1 [Example 42]
1000 to 10000 | 1000 to 10000 | ≤ 100 | ≤ 100 | – | – | – | Cc1ccc(NC(=O)c2ccnc(C(C)(C)C#N)c2)cc1-c1cncc(-c2ccnc3c2CC(=O)N3)n1 [Example 43]
1000 to 10000 | 1000 to 10000 | ≤ 100 | ≤ 100 | – | – | – | Cc1ccc(NC(=O)c2ccnc(C(F)(F)F)c2)cc1-c1ccnc(-c2ccnc(NC=O)c2)c1 [Example 46]
1000 to 10000 | 1000 to 10000 | ≤ 100 | ≤ 100 | – | – | – | CNC(=O)c1cc(-c2cncc(-c3cc(NC(=O)c4ccnc(C(F)(F)F)c4)ccc3C)n2)ccn1 [Example 47]
1000 to 10000 | 1000 to 10000 | ≤ 100 | ≤ 100 | – | – | – | CNC(=O)c1cc(-c2cc(-c3cc(NC(=O)c4ccnc(C(F)F)c4)ccc3C)ccn2)ccn1 [Example 48]
1000 to 10000 | 1000 to 10000 | ≤ 100 | ≤ 100 | – | – | – | Cc1cc(-c2cc(-c3cc(NC(=O)c4ccnc(C(C)(C)C#N)c4)ccc3C)ccn2)ccn1 [Example 49]
1000 to 10000 | 1000 to 10000 | ≤ 100 | ≤ 100 | – | – | – | CNC(=O)c1cc(-c2cc(-c3cc(NC(=O)c4ccnc(C(C)(C)C#N)c4)ccc3C)ccn2)ccn1 [Example 50]
1000 to 10000 | 1000 to 10000 | ≤ 100 | ≤ 100 | – | – | – | CNC(=O)c1cc(-c2cc(-c3cc(NC(=O)c4cccc(C(F)(F)F)c4)cnc3C)ccn2)ccn1 [Example 52]
1000 to 10000 | 1000 to 10000 | ≤ 100 | ≤ 100 | – | – | – | Cc1ccc(NC(=O)c2ccnc(C(F)(F)F)c2)cc1-c1ccnc(-c2ccnc(NC(=O)C3CC3)c2)c1 [Example 54]
1000 to 10000 | 1000 to 10000 | ≤ 100 | ≤ 100 | – | – | – | Cc1ccc(NC(=O)c2ccnc(C(C)(C)C#N)c2)cc1-c1ccnc(-c2ccnc(N)c2)c1 [Example 56]
1000 to 10000 | 1000 to 10000 | ≤ 100 | ≤ 100 | – | – | – | COCC(=O)Nc1cc(-c2cccc(-c3cc(NC(=O)c4ccnc(C(F)(F)F)c4)ccc3C)c2)ccn1 [Example 57]

IC50 [1] [nM] | IC50 [2, 5] [nM] | IC50 [3, 6] [nM] | IC50 [4, 7] [nM] | IC50 [2, 8] [nM] | IC50 [3, 9] [nM] | IC50 [4, 10] [nM] | SMILES
– | 1000 to 10000 | 100 to 500 | ≤ 100 | – | – | – | CNC(=O)c1cc(-c2cncc(-c3cc(C(=O)Nc4cnn(C(C)C)c4)ccc3C)n2)ccn1 [Example 81]
– | – | – | – | 1000 to 10000 | ≤ 100 | 100 to 500 | Cc1ccc(NC(=O)c2cn(C(C)C)nc2C)cc1-c1cc(-c2ccnc(NC(=O)C3CC3)c2)cnn1 [Example 373]
– | – | – | – | 1000 to 10000 | 1000 to 10000 | 1000 to 10000 | CNC(=O)c1cc(-c2cnnc(-c3cc(NC(=O)CCC4(F)CC4)cnc3C)c2)ccn1 [Example 374]
– | – | – | – | 1000 to 10000 | ≤ 100 | ≤ 100 | COC(=O)Nc1cc(-c2cnnc(-c3cc(NC(=O)c4ccnc(C(C)(C)F)c4)ccc3C)c2)ccn1 [Example 375]
– | – | – | – | 1000 to 10000 | ≤ 100 | ≤ 100 | CNC(=O)c1cc(-c2ccnc(-c3cc(NC(=O)c4ccnc(C(C)(C)C#N)c4)ccc3C)c2)ccn1 [Example 376]
– | – | – | – | 1000 to 10000 | ≤ 100 | ≤ 100 | Cc1ccc(NC(=O)c2cc(C3CC3)n(C)n2)cc1-c1cc(-c2ccnc(NC(=O)C3CC3)c2)cnn1 [Example 377]
– | – | – | – | 1000 to 10000 | ≤ 100 | ≤ 100 | CNC(=O)c1cc(-c2ccnc(-c3cc(NC(=O)c4ccnc(C(C)(C)F)c4)ccc3C)c2)ccn1 [Example 378]
– | – | – | – | 1000 to 10000 | ≤ 100 | ≤ 100 | Cc1ccc(NC(=O)c2ccnc(C(C)(C)F)c2)cc1-c1cncc(-c2ccnc(C(N)=O)c2)c1 [Example 380]
– | – | – | – | 1000 to 10000 | ≤ 100 | 100 to 500 | Cc1ccc(NC(=O)c2cnn(CC(F)(F)F)c2)cc1-c1cncc(-c2ccnc(C(N)=O)c2)c1 [Example 381]
– | – | – | – | 1000 to 10000 | ≤ 100 | 100 to 500 | CNC(=O)c1cc(-c2cncc(-c3cc(NC(=O)c4cnn(CC(F)(F)F)c4)ccc3C)c2)ncn1 [Example 382]
– | – | – | – | 1000 to 10000 | 100 to 500 | 1000 to 10000 | CNC(=O)c1cc(-c2cncc(-c3cc(NC(=O)Cn4cc(C(C)C)nn4)ccc3C)c2)ncn1 [Example 383]
– | – | – | – | 1000 to 10000 | 100 to 500 | ≤ 100 | Cc1ncc(NC(=O)c2ccnc(C(C)(C)C#N)c2)cc1-c1cccc(-c2ncnn3cccc23)c1 [Example 385]
– | – | – | – | 1000 to 10000 | ≤ 100 | ≤ 100 | COC(=O)Nc1cc(-c2cc(-c3cc(NC(=O)c4ccnc(C(C)(C)F)c4)c(F)cc3C)cc(C)n2)ccn1 [Example 386]
– | – | – | – | 1000 to 10000 | ≤ 100 | 100 to 500 | Cc1ccc(NC(=O)[C@H]2CCO[C@@H](C(C)C)C2)cc1-c1cc(-c2ccnc(NC(=O)C3CC3)c2)cnn1 [Example 388]
– | – | – | – | 1000 to 10000 | ≤ 100 | 100 to 500 | Cc1ccc(NC(=O)[C@H]2CCO[C@H](C(C)C)C2)cc1-c1cc(-c2ccnc(NC(=O)C3CC3)c2)cnn1 [Example 389]
– | – | – | – | 1000 to 10000 | 100 to 500 | 1000 to 10000 | CNC(=O)c1cc(-c2ccnc(-c3cc(NC(=O)CCC4(F)CC4)ccc3C)c2)ccn1 [Example 392]
– | – | – | – | 500 to 1000 | ≤ 100 | ≤ 100 | Cc1cc(F)c(NC(=O)c2ccnc(C(C)(C)F)c2)cc1-c1cncc(-c2ccnc(NC(=O)C3CC3)c2)c1 [Example 399]
– | – | – | – | 1000 to 10000 | ≤ 100 | 100 to 500 | Cc1ccc(NC(=O)c2ccnc(C(C)(C)F)c2)cc1-c1cc(-c2ccnc3[nH]ncc23)cnn1 [Example 400]
– | – | – | – | 1000 to 10000 | ≤ 100 | ≤ 100 | COC(=O)Nc1cc(-c2cccc(-c3cc(NC(=O)c4ccnc(C(C)(C)F)c4)cnc3C)c2)ccn1 [Example 402]
– | – | – | – | 1000 to 10000 | ≤ 100 | ≤ 100 | COC(=O)Nc1cc(-c2ccnc(-c3cc(NC(=O)c4ccnc(C(C)(C)F)c4)ccc3C)n2)ccn1 [Example 403]
